Source: PMC6586795 (Nature Communications, 2019)

Molecular target: T1, Drosophila melanogaster dopamine transporter (dDAT) (Drosophila melanogaster, UniProt Q7K4Y6)
T1 construct: gene DAT; Full-length wild-type dDAT with a C-terminal thrombin site and 8 histidine-tag
Experiment: [3H]nisoxetine saturation binding, scintillation proximity assay on purified dDAT

T1 sequence (Q7K4Y6 whole entry): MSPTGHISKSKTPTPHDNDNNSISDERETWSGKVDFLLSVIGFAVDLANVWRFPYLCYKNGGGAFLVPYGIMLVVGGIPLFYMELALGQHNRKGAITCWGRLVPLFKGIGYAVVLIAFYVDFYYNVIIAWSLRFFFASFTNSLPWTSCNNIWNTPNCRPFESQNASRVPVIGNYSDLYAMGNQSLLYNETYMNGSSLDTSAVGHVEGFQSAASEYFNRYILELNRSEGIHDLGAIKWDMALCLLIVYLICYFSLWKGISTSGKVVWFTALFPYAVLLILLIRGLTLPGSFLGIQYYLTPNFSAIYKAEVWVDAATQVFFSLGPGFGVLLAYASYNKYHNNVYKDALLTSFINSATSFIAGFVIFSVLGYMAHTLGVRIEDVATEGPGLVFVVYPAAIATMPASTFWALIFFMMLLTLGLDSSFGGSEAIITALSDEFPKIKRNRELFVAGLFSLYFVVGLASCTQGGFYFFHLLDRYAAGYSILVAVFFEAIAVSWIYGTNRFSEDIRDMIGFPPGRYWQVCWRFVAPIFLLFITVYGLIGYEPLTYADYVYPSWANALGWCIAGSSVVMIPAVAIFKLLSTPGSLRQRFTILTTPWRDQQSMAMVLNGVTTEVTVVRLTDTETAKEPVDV

## CNCCC(Oc1ccccc1OC)c1ccccc1 (stereo not shown) [nisoxetine]
  Kd: 80 ± 6 nM
